Experimental data taken from patent US20240351996A1, “CDK19-SELECTIVE INHIBITORS, AND METHODS OF USE THEREOF” (CZ BIOHUB SF, LLC, priority 2022, published 2024).

What was measured:
CDK19/CycC = CDK19/CycC (Homo sapiens, UniProt Q9BWU1); assay: LanthaScreen europium kinase binding assay (FRET displacement), CDK19; settings: for CDK19 Selectivity: CDK19/CDK8 selectivity based on IC50 values; for IC50: his-tagged CDK19/CycC 5 nM, tracer 10 nM, 3 h incubation
Experimental: (§1) FRET Displacement Assay to Measure IC50: The CDK19/CDK8 IC50 values were measured to evaluate activity and to determine CDK19/CDK8 selectivity. The IC50 values of the disclosed compounds was measured using a LanthaScreen™ europium kinase binding assay (ThermoFisher), as described herein.
To a kinase buffer cocktail solution (i.e., 5× Kinase Buffer A) was added: purified recombinant his-tagged CDK19/CycC protein (5 nM), ATP-competitive kinase inhibitor scaffold kinase tracer Alexa Fluor® 665 (10 nM), biotin anti-his tag antibody (2 nM), LanthaScreen® europium-streptavidin (2 nM). An aliquot of the cocktail solution (10 μL) was added to each well of a LUMITRAC™ 200:384 flat bottom, non-treated microtiter white plate. The plate was then covered to protect light sensitive reagents and incubated for 30 min at room temperature to equilibrate before addition of any inhibitors.
(§2) A serial dilution of the compounds was titrated into each well using an automated liquid handling Staccato integrated system at the following concentration(s) (Log10 Molar [C]): −4.5, −5.0, −5.5, −6.0, −6.5, −7.0, −7.5, −8.0 so that a complete dose-response could be calculated. A Tecan microplate reader infinite m200 instrument was then used to measure the FRET signal of each individual well using an excitation of 317/20 nm, emission europium of 620/12 nm, and emission kinase tracer of 665/12 nm after a 3 h incubation period at room temperature until steady-state kinetics were achieved.
(§3) Results were performed in duplicate and were repeated a total of 3 independent times before data was normalized to the DMSO control group and IC50 values reported.

CDK8 = CDK8 (Homo sapiens, UniProt P49336); assay: LanthaScreen europium kinase binding assay (FRET displacement), CDK8
Experimental: as §1
[…] An aliquot of the cocktail solution (10 μL) was added to each well of a LUMITRAC™ 200:384 flat bottom, non-treated microtiter white plate. The plate was then covered to protect light sensitive reagents and incubated for 30 min at room temperature to equilibrate before addition of any inhibitors.
as §2, §3

Chain of CDK19/CycC (Q9BWU1 whole entry): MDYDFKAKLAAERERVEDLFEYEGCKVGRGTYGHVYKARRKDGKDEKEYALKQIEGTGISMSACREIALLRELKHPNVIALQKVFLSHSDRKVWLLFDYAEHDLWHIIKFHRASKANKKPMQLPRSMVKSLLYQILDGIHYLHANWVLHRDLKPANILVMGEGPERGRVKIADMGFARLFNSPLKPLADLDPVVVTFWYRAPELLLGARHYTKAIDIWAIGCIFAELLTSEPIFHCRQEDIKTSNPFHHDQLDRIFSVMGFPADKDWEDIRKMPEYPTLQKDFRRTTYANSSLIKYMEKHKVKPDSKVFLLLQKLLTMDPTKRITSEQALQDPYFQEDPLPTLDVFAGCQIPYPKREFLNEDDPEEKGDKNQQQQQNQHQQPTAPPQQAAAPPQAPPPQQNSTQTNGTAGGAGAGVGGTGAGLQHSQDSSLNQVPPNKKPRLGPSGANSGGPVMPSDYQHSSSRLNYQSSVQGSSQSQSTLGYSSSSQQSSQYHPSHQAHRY
Chain of CDK19/CycC (P24863 whole entry partner): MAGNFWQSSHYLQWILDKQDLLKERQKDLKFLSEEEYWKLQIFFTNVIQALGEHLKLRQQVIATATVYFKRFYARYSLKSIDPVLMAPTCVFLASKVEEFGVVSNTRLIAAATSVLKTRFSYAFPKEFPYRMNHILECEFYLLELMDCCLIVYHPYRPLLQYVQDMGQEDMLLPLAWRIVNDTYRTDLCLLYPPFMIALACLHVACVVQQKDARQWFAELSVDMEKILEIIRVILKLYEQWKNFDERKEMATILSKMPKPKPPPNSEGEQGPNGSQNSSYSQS
Chain of CDK8 (P49336 whole entry): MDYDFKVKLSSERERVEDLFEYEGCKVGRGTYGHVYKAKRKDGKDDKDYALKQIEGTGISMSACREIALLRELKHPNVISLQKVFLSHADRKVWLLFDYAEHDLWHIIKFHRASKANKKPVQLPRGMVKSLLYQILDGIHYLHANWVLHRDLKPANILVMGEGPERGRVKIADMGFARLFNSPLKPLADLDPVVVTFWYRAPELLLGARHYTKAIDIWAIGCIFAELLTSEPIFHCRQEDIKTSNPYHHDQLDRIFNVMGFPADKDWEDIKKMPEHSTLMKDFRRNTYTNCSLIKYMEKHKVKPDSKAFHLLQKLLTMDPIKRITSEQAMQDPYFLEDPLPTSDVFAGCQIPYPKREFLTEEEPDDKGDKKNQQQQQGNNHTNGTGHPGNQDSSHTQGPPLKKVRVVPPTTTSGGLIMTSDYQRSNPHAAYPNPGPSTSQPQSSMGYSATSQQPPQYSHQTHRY
Chain of CDK8 (P24863 whole entry partner): as the sequence (P24863 whole entry partner) above

| CDK19 Selectivity (CDK19/CycC) | IC50 (CDK19/CycC) | IC50 (CDK8) | SMILES |
| --- | --- | --- | --- |
| 0.9 | 0.038 µM | 0.034 µM | Cc1cnc2ccccc2c1Nc1cnc(Nc2ccc(CC(C)C)cc2)nc1 [Compound A12] |
| 4 | 0.089 µM | 0.362 µM | Cc1cnccc1Nc1cnc(Nc2ccc(OC(C)C)cc2F)nc1 [Compound A162] |
|  | 10 µM | 10 µM | CC(C)Cc1ccc(Nc2ncc(-c3ccc(C#N)cn3)cn2)cc1 [Compound A95] |
| 3 | 0.965 µM | 2.87 µM | COc1cc(Nc2cnc(Nc3cccc(CC(C)C)c3)nc2)ccn1 [Compound A33] |
| 1 | 0.013 µM | 0.015 µM | Cc1cnccc1Nc1cnc(Nc2ccc(C3CCC3)cc2)nc1 [Compound A147] |
| ≥6 | ≤ 0.0025 µM | 0.016 µM | COc1cnccc1Nc1cnc(Nc2ccc(CC(C)C)cc2)nc1 [Compound A50] |
| 1 | 0.003 µM | 0.003 µM | CC(C)Cc1ccc(Nc2ncc(Nc3ccncc3C(F)(F)F)cn2)cc1 [Compound A154] |
| ≥14 | ≤ 0.0025 µM | 0.034 µM | CC(C)Cc1ccc(Nc2ncc(C(=O)c3ccncc3C3CC3)cn2)cc1 [Compound A72] |
| 9 | 1.11 µM | 10 µM | CC(C)Cc1ccc(Nc2ncc(-c3cc(C#N)ccn3)cn2)cc1 [Compound A96] |
| 2 | 0.007 µM | 0.013 µM | CC(C)Cc1ccc(Nc2ncc(C(=O)c3ccncc3OC3CCCC3)cn2)c(F)c1 [Compound A176] |
| 3 | 0.265 µM | 0.797 µM | CC(C)Cc1ccc(Nc2ncc(C(=O)c3cccnc3)cn2)cc1 [Compound A133] |
| 2.7 | 0.557 µM | 1.49 µM | Cc1cc(C)cc(-c2cnc(Nc3ccc(CC(C)C)cc3)nc2)c1 [Compound A88] |
| 3.3 | 0.029 µM | 0.096 µM | CCCc1ccc(Nc2ncc(Nc3ccncc3)cn2)cc1 [Compound A14] |
| 1 | 0.018 µM | 0.017 µM | Cc1cnccc1Nc1cnc(Nc2ccc(C3CCCCC3)cc2)nc1 [Compound A148] |
| 4.6 | 1.06 µM | 4.86 µM | Cc1cc(C#N)ccc1-c1cnc(Nc2ccc(CC(C)C)cc2)nc1 [Compound A90] |
| 1 | 10 µM | 10 µM | CC(C)Cc1ccc(Nc2ncc(-c3ccccc3)cn2)cc1 [Compound A102] |
| ≤1 | ≤ 0.0025 µM | ≤ 0.0025 µM | FC(F)(F)c1cnccc1Nc1cnc(Nc2ccc(C3CCOCC3)cc2)nc1 [Compound A181] |
| 2 | 0.004 µM | 0.007 µM | CC(C)Cc1ccc(Nc2ncc(C(=O)c3ccncc3OC3CCCC3)cn2)cc1 [Compound A170] |
| 1.3 | 0.024 µM | 0.031 µM | Cc1cnccc1Nc1cnc(Nc2ccc(CC(C)C)cc2)nc1C [Compound A22] |
| 1.8 | 0.0037 µM | 0.0066 µM | CC(C)Cc1ccc(Nc2ncc(C(=O)c3ccncc3Cl)cn2)cc1 [Compound A118] |
| 1 | 4.81 µM | 6.33 µM | FC(F)(F)c1cc(Nc2ncc(Nc3ccncc3)cn2)cc(C(F)(F)F)c1 [Compound A44] |
| 2 | 0.011 µM | 0.023 µM | Cc1cnccc1Nc1cnc(Nc2ccc(CC(C)C)cc2F)nc1 [Compound A59] |
|  | 0.004 µM | 0.006 µM | c1cc(Nc2cnc(Nc3ccc(C4CCOCC4)cc3)nc2)c(OC2CCCC2)cn1 [Compound A180] |
|  | 9.87 µM | 10 µM | Cc1cc(Nc2cnc(Nc3cccc(C4CC4)c3)nc2)ccn1 [Compound A24] |
| 4 | 0.154 µM | 0.614 µM | CC(C)Cc1ccc(Nc2ncc(C(C)(O)c3ccncc3)cn2)cc1 (stereo not drawn) [Compound A167] |
| 2 | 0.132 µM | 0.276 µM | Cc1ccc(C#N)cc1-c1cnc(Nc2ccc(CC(C)C)cc2)nc1 [Compound A93] |
| 3 | 0.018 µM | 0.054 µM | CC(C)Cc1ccc(Nc2ncc(Nc3ccnc(N)c3)cn2)cc1 [Compound A159] |

| CDK19 Selectivity (CDK19/CycC) | IC50 (CDK19/CycC) | IC50 (CDK8) | SMILES |
| --- | --- | --- | --- |
| 0.9 | 0.016 µM | 0.015 µM | COc1cnccc1Nc1cnc(Nc2ccc(CC(C)C)cc2)nc1C [Compound A25] |
| 3 | 3.33 µM | 10 µM | CC(C)Cc1ccc(Nc2ccc(-c3ccncc3)cn2)cc1 [Compound A80] |
| 3 | 0.006 µM | 0.019 µM | CC(C)Cc1ccc(Nc2ncc(-c3cccc(-c4ccncc4)c3)cn2)cc1 [Compound A155] |
| 4.7 | 0.822 µM | 3.84 µM | Cc1cc(-c2cnc(Nc3ccc(CC(C)C)cc3)nc2)cc(C)n1 [Compound A101, 5-(2,6-dimethylpyridin-4-yl)-N-(4-isobutylphenyl)pyrimidin-2-amine] |
| ≥15 | ≤ 0.0025 µM | 0.038 µM | CCc1cnccc1Nc1cnc(Nc2ccc(CC(C)C)cc2)nc1 [Compound A51] |
| 1.5 | 0.131 µM | 0.193 µM | CC(C)Cc1ccc(Nc2ccc(-c3cccnc3)cn2)cc1 [Compound A82] |
|  | 10 µM | 10 µM | Fc1ccc(Nc2ccc(Nc3ccncc3)cn2)cc1 [Compound A84] |
| 5 | 0.704 µM | 3.55 µM | CC(C)Cc1ccc(Nc2ncc(Nc3cccnc3)cn2)cc1 [Compound A52, N2-(4-isobutylphenyl)-N5-(pyridin-3-yl)pyrimidine-2,5-diamine] |
|  | ≤ 0.0025 µM | 0.003 µM | CC(C)Oc1ccc(Nc2ncc(Nc3ccncc3C(F)(F)F)cn2)cc1 [Compound A177] |
| 2 | 0.023 µM | 0.05 µM | Cc1cnc(F)cc1Nc1cnc(Nc2ccc(CC(C)C)cc2)nc1 [Compound A150] |
| 1.5 | 6.49 µM | 10 µM | Cc1cncc(F)c1C(=O)c1cnc(Nc2ccc(CC(C)C)cc2)nc1 [Compound A117] |
| 2.3 | 0.389 µM | 0.905 µM | CCc1cnc(C)cc1Nc1cnc(Nc2ccc(CC(C)C)cc2)nc1 [Compound A64] |
| 4 | 0.057 µM | 0.238 µM | Cc1cnccc1Nc1cnc(Nc2ccc(CC(C)C)cc2C)nc1 [Compound A165] |
|  | 10 µM | 10 µM | Cc1cc(Nc2cnc(Nc3cccc(C4CC4)c3)nc2)cc(C)n1 [Compound A27] |
| 4 | 2.07 µM | 8.26 µM | Cc1cc(Nc2cnc(Nc3ccc(CC(C)C)cc3)nc2)cc(C)n1 [Compound A9] |
| 4.8 | 0.005 µM | 0.024 µM | CC(C)Cc1ccc(Nc2ncc(Cc3ccncc3)cn2)cc1 [Compound A138] |
| 3 | 1.72 µM | 5.1 µM | CC(C)Cc1ccc(Nc2ccc(-c3ccccc3)cn2)cc1 [Compound A76] |
| 3.5 | 0.378 µM | 1.32 µM | Cc1cnccc1Nc1cnc(Nc2cccc(CC(C)C)c2)nc1 [Compound A32] |
| 2 | 1.34 µM | 2.38 µM | CC(C)Cc1ccc(Nc2ccc(C(=O)c3cccnc3)cn2)cc1 [Compound A200] |
| 5 | 0.903 µM | 4.51 µM | CC(C)Cc1cccc(Nc2ncc(Nc3ccnc(C(C)C)c3)cn2)c1 [Compound A34] |
| 1.8 | 0.0057 µM | 0.01 µM | COc1cc(CC(C)C)ccc1Nc1ncc(C(=O)c2ccncc2)cn1 [Compound A131] |
| 1 | 0.076 µM | 0.075 µM | CC(C)Cc1ccc(Nc2ncc(Nc3ccncc3NC3CCCC3)cn2)cc1 [Compound A163] |
| 2 | 0.036 µM | 0.072 µM | FC(F)(F)Oc1ccc(Nc2ncc(Nc3ccncc3)cn2)cc1 [Compound A145] |
| 4.2 | 0.123 µM | 0.513 µM | COc1cc(CC(C)C)ccc1Nc1ncc(Nc2ccncc2)cn1 [Compound A36] |
| 1 | 0.106 µM | 0.106 µM | FC(F)C(F)(F)Oc1ccc(Nc2ncc(Nc3ccncc3OC3CCCC3)cn2)cc1 [Compound A67] |
| 12 | 0.798 µM | 10 µM | Cc1cc(-c2cnc(Nc3ccc(CC(C)C)cc3)nc2)ccc1C#N [Compound A91] |
